Measured values published in the NIST ThermoML archive (doi:10.1021/je060026r).

Assay: excess molar enthalpy (molar enthalpy of mixing); xn = mol fraction of the nth substance listed
Conditions: 313.15 K, 101 kPa, Liquid, Flow calorimetry

COCC(C)O (stereo unspecified) [1-methoxy-2-propanol] + c1ccccc1
Conditions | excess molar enthalpy [kcal/mol]
x1 = 0.0455 | 0.0767
x1 = 0.0914 | 0.124
x1 = 0.1377 | 0.155
x1 = 0.1845 | 0.176
x1 = 0.2317 | 0.188
x1 = 0.2794 | 0.194
x1 = 0.3276 | 0.195
x1 = 0.3763 | 0.193
x1 = 0.4254 | 0.186
x1 = 0.475 | 0.179
x1 = 0.5251 | 0.167
x1 = 0.5758 | 0.153
x1 = 0.6269 | 0.139
x1 = 0.6786 | 0.122
x1 = 0.7308 | 0.103
x1 = 0.7835 | 0.084
x1 = 0.8368 | 0.0643
x1 = 0.8906 | 0.0434
x1 = 0.945 | 0.0216

COCC(C)O (stereo unspecified) [1-methoxy-2-propanol] + C1CCCCC1
Conditions | excess molar enthalpy [kcal/mol]
x1 = 0.0547 | 0.14
x1 = 0.109 | 0.213
x1 = 0.1626 | 0.261
x1 = 0.2158 | 0.295
x1 = 0.2684 | 0.319
x1 = 0.3205 | 0.333
x1 = 0.3721 | 0.341
x1 = 0.4232 | 0.344
x1 = 0.4738 | 0.341
x1 = 0.5239 | 0.335
x1 = 0.5736 | 0.321
x1 = 0.6227 | 0.305
x1 = 0.6715 | 0.283
x1 = 0.7197 | 0.258
x1 = 0.7675 | 0.227
x1 = 0.8149 | 0.191
x1 = 0.8618 | 0.15
x1 = 0.9083 | 0.105
x1 = 0.9544 | 0.0542

CCCCOCCO [2-butoxyethan-1-ol] + c1ccccc1
Conditions | excess molar enthalpy [kcal/mol]
x2 = 0.0343 | 0.0612
x2 = 0.0698 | 0.1
x2 = 0.1064 | 0.126
x2 = 0.1444 | 0.145
x2 = 0.1836 | 0.156
x2 = 0.2243 | 0.162
x2 = 0.2665 | 0.165
x2 = 0.3103 | 0.163
x2 = 0.3557 | 0.159
x2 = 0.4029 | 0.153
x2 = 0.452 | 0.144
x2 = 0.503 | 0.133
x2 = 0.5562 | 0.119
x2 = 0.6116 | 0.105
x2 = 0.6694 | 0.0891
x2 = 0.7297 | 0.0726
x2 = 0.7927 | 0.0544
x2 = 0.8586 | 0.0359
x2 = 0.9277 | 0.0175

CCCCOCCO [2-butoxyethan-1-ol] + C1CCCCC1
Conditions | excess molar enthalpy [kcal/mol]
x2 = 0.0414 | 0.0997
x2 = 0.0836 | 0.149
x2 = 0.1265 | 0.183
x2 = 0.1702 | 0.207
x2 = 0.2148 | 0.222
x2 = 0.2602 | 0.233
x2 = 0.3065 | 0.24
x2 = 0.3536 | 0.243
x2 = 0.4017 | 0.242
x2 = 0.4507 | 0.238
x2 = 0.5007 | 0.229
x2 = 0.5518 | 0.219
x2 = 0.6038 | 0.204
x2 = 0.6569 | 0.186
x2 = 0.7111 | 0.165
x2 = 0.7665 | 0.139
x2 = 0.823 | 0.11
x2 = 0.8807 | 0.077
x2 = 0.9397 | 0.0402
